Reference: patent US20260078103A1, “ISOQUINOLONES AS PI3K INHIBITORS” (OnKure, Inc., priority 2022, published 2026)
Like-named read-outs stand apart in the source and are kept apart here.

Experiments:
Type in all cases: cell-based
[1] = system: phosphorylation of AKT (pAKT) in T47D cells expressing mutant PI3Ka (H1047R); experiment: In vitro cell pAKT (Ser473) HTRF, T47D cells; details: cellular pAKT, T47D cells, mutant PI3Ka (H1047R), 6 hours, read-out: Avg T-47D IC50
Procedure, shortened: (§1)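 T47D cells (RPMI, 10% FBS, 0.2 units/mL insulin) or SKBR3 cells (McCoy's 5a, 10% FBS) were seeded onto 10-point compound dilutions and incubated 6 h at 37 °C. After lysis, pAKT was detected overnight by HTRF (Eu cryptate/d2). IC50 was fitted from % inhibition relative to 0.1% DMSO and 10 uM alpelisib controls.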

[2] = system: phosphorylation of AKT (pAKT) in SKBR3 cells express WT PI3Ka; experiment: In vitro cell pAKT (Ser473) HTRF, SKBR3 cells; details: cellular pAKT
Procedure, shortened: as §1

[3] = system: T47D cells expressing mutant PI3Ka (H1047R); experiment: In vitro cell proliferation, T47D cells (CellTiter-Glo); details: inhibition of proliferation, read-out: Avg T-47D EC50
Procedure, shortened: (§2)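 T47D cells in RPMI/10% FBS/insulin (0.2 units/mL) or SKBR3 in McCoys 5a/10% FBS, 1,500 cells/well, grown 72 h at 37 °C with 10-point compound dilutions. CellTiter-Glo luminescence; % inhibition normalised to 0.1% DMSO and 10 uM Alpelisib, EC50 from four-parameter curve fit.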

[4] = system: SKBR3 cells express WT PI3Ka; experiment: In vitro cell proliferation, SKBR3 cells (CellTiter-Glo); details: inhibition of proliferation
Procedure, shortened: as §2

Row | Compound | IC50 [1] | IC50 ([2]; 6 hours) | EC50 ([3]; 72 hours) | EC50 ([4]; 72 hours) | IC50 ([1]; Homo sapiens, T47D, 6 h) | IC50 ([2]; Homo sapiens, SK-BR-3, 6 h) | EC50 ([3]; Homo sapiens, T47D, 72 h) | EC50 ([4]; Homo sapiens, SK-BR-3, 72 h)
1 | Cc1cc(C(C)Nc2cccc(C#N)c2C(=O)O)c2cc(N3CCN(CC(F)(F)F)CC3)n(C)c(=O)c2c1 (centres unmarked) [Example 354] | 2000 to 15000 nM | > 15000 nM | 2000 to 15000 nM | > 15000 nM |  |  |  | 
2 | Cc1ccc(N2CCN(c3cc4c([C@@H](C)Nc5cccc(F)c5C(=O)O)cc(F)cc4c(=O)n3C)CC2)cn1 [Example 362] |  |  |  |  | 1 to 500 nM | 2000 to 15000 nM | 1 to 500 nM | 2000 to 15000 nM
3 | CCOc1ncc(-c2cc3c([C@@H](C)Nc4cccc(F)c4C(=O)O)cc(F)cc3c(=O)n2C)s1 [Example 363] |  |  |  |  | 1 to 500 nM | > 15000 nM | 1 to 500 nM | > 15000 nM
4 | Cc1cc([C@@H](C)Nc2ccccc2C(=O)O)c2cc(N3CCN(c4cnc(C)s4)CC3)n(C)c(=O)c2c1 [Example 364] |  |  |  |  | 1 to 500 nM | 500 to 2000 nM | 1 to 500 nM | 2000 to 15000 nM
5 | Cc1cc([C@@H](C)Nc2ccccc2C(=O)O)c2cc(N3CCN(c4cnc(C)c(F)c4)CC3)n(C)c(=O)c2c1 [Example 367] | 1 to 500 nM | 2000 to 15000 nM | 1 to 500 nM | 2000 to 15000 nM |  |  |  | 
6 | C[C@@H](Nc1cccc(F)c1C(=O)O)c1cc(F)cc2c(=O)n(C)c(-c3cnc(C(F)(F)F)nc3)cc12 [Example 372] | 2000 to 15000 nM | > 15000 nM | 2000 to 15000 nM | > 15000 nM |  |  |  | 
7 | C#Cc1ccc(N[C@H](C)c2cc(C)cc3c(=O)n(C)c(-c4cnc(C(F)(F)F)nc4)cc23)c(C(=O)O)n1 [Example 375] | 1 to 500 nM | > 15000 nM | 1 to 500 nM | > 15000 nM |  |  |  | 
8 | Cc1cc([C@@H](C)Nc2ccc(Cl)nc2C(=O)O)c2cc(-c3cnc(C(F)(F)F)nc3)n(C)c(=O)c2c1 [Example 376] |  |  |  |  | 1 to 500 nM | 2000 to 15000 nM | 1 to 500 nM | > 15000 nM
9 | Cc1cc([C@@H](C)Nc2cnc(Cl)nc2C(=O)O)c2cc(N3CCN(CC(F)(F)F)CC3)n(C)c(=O)c2c1 [Example 377] | 2000 to 15000 nM | > 15000 nM | 2000 to 15000 nM | > 15000 nM |  |  |  | 
10 | C[C@@H](Nc1cccc(F)c1C(=O)O)c1cc(F)cc2c(=O)n(C)c(-c3ccc(OC4CC4)nc3)cc12 [Example 379] |  |  |  |  | 1 to 500 nM | > 15000 nM | 1 to 500 nM | > 15000 nM
11 | Cc1cc([C@@H](C)Nc2ccccc2C(=O)O)c2cc(N3CCN(c4ccc(CF)nc4)CC3)n(C)c(=O)c2c1 [Example 381] | 1 to 500 nM | 2000 to 15000 nM | 1 to 500 nM | 2000 to 15000 nM |  |  |  | 
12 | Cc1cc([C@@H](C)Nc2ccc(F)nc2C(=O)O)c2cc(-c3cnc(C(F)(F)F)nc3)n(C)c(=O)c2c1 [Example 387] | 500 to 2000 nM | > 15000 nM | 1 to 500 nM | > 15000 nM |  |  |  | 
13 | CC(Nc1cccc(F)c1C(=O)O)c1cc(F)cc2c(=O)n(C)c(-c3cnc(OC4CC(F)C4)c(F)c3)cc12 (centres unmarked) [Example 388] | 1 to 500 nM | > 15000 nM | 1 to 500 nM | > 15000 nM |  |  |  | 

Continued, values first:

Row | IC50 [1] | IC50 ([2]; 6 hours) | EC50 ([3]; 72 hours) | EC50 ([4]; 72 hours) | IC50 ([1]; Homo sapiens, T47D, 6 h) | IC50 ([2]; Homo sapiens, SK-BR-3, 6 h) | EC50 ([3]; Homo sapiens, T47D, 72 h) | EC50 ([4]; Homo sapiens, SK-BR-3, 72 h) | Compound
14 | 1 to 500 nM | > 15000 nM | 1 to 500 nM | > 15000 nM |  |  |  |  | Cc1cc([C@@H](C)Nc2ccccc2C(=O)O)c2cc(-c3cc(F)c4nn(C)cc4c3)n(C)c(=O)c2c1 [Example 365]
15 |  |  |  |  | 1 to 500 nM | 2000 to 15000 nM | 1 to 500 nM | 2000 to 15000 nM | Cc1cc([C@@H](C)Nc2ccccc2C(=O)O)c2cc(-c3cc(F)c4c(cnn4C)c3)n(C)c(=O)c2c1 [Example 366]
16 |  |  |  |  | 1 to 500 nM | > 15000 nM | 1 to 500 nM | > 15000 nM | Cc1cc([C@@H](C)Nc2ccccc2C(=O)O)c2cc(-c3cnc(CF)nc3)n(C)c(=O)c2c1 [Example 369]
17 | 500 to 2000 nM | > 15000 nM | 500 to 2000 nM | > 15000 nM |  |  |  |  | Cc1cc([C@@H](C)Nc2cccc(F)c2C(=O)O)c2cc(-c3cnc(C(F)(F)F)nc3)n(C)c(=O)c2c1 [Example 371]
18 |  |  |  |  | 1 to 500 nM | > 15000 nM | 1 to 500 nM | > 15000 nM | C[C@@H](Nc1ccccc1C(=O)O)c1cc(F)cc2c(=O)n(C)c(-c3cnc(-c4ccc(F)cn4)c(F)c3)cc12 [Example 378]
19 |  |  |  |  | 1 to 500 nM | > 15000 nM | 1 to 500 nM | > 15000 nM | Cc1cc([C@@H](C)Nc2ccccc2C(=O)O)c2cc(-c3cnc(C(F)(F)F)cn3)n(C)c(=O)c2c1 [Example 382]
20 |  |  |  |  | 1 to 500 nM | > 15000 nM | 1 to 500 nM | > 15000 nM | Cc1cc([C@@H](C)Nc2ccccc2C(=O)O)c2cc(-c3ncc(C(F)(F)F)cn3)n(C)c(=O)c2c1 [Example 383]
